According to patent US20110173718A1, “HERBICIDE TOLERANT PLANTS” (SYNGENTA CROP PROTECTION, INC., priority 2008, published 2011):
Several values for one entry are separate records, joined by “and”; a condition that tells them apart may be missing. Equal entries are not always repeated.

Experiments:
Type in all cases: in vivo
[1] = tested on: wild-type (WT) Samsun tobacco; assay: Glasshouse spray test, wild-type tobacco; conditions: Norflurazon, 150 g/ha; 14 DAT; WT control, reps
Description: Rooted transgenic T0 plantlets are transferred from agar and potted into 50% peat, 50% John Innes soil no 3 or, for example, MetroMix® 380 soil (Sun Gro Horticulture, Bellevue, Wash.) with slow-release fertilizer in 3 inch round or 4 inch square pots and left regularly watered to establish for 8-12 d in the glass house. Glass house conditions are about 24-27° C. day; 18-21° C. night and approximately a 14 h (or longer in UK summer) photoperiod. Humidity is ˜65% and light levels up to 2000 μmol/m^2 at bench level. Once new tissue emerges and plants they have reached the 2-4 leaf stage some of the clones from each event are sprayed with test chemicals dissolved in water with 0.2-0.25% X-77 surfactant and sprayed from a boom on a suitable track sprayer moving at 2 mph in a DeVries spray chamber with the nozzle about 2 inches from the plant tops. Spray volume is suitably 25 gallons per acre or, for example, […].
Test chemicals are, for example, compound 2.3 at 500 g/ha. At the same time that transgenic plants are sprayed so too are w/t Samsun tobacco plants grown from seed as well as non-transgenic plants regenerated from tissue culture and non-transgenic tissue culture escapes. Damage is assessed versus unsprayed control plants of like size and development.
6 Seed from w/t Samsun tobacco and 8 T1 seed from events B8 and G9 are also planted out in 3 inch pots, grown on for 7 to 12 d and then, as described in the foregoing examples, the plantlets spray tested for resistance to various chemicals and assessed at 14 DAT. Chemicals are formulated in 0.2% X77 and sprayed at a spray volume of 200 l/ha.
Seed of wild-type tobacco plants, C2 tobacco plants and of the T1 progeny of a further Arabidopsis-HST expressing tobacco line, D2 were planted out in 3 inch pots, grown on, sprayed with compounds 1.1, 2.30 and 3.6 at the rates shown in table 5. Percent damage scores were assessed at 7 DAT. Aside from the presumptive non-transgenic segregants the D2 line containing the Arabidopis HST expression construct offered the highest level of tolerance to the two HST herbicides with the Psuedomonas HPPD, C2 line, offering only marginal tolerance under the conditions of this test.
Single copy events amongst the T1 plant lines are identified by their 3:1 segregation ratio (wrt kanamycin and or herbicide) and by quantitative RT-PCR. Seed from the thus selected T1 tobacco (var Samsun) lines are sown in 3 inch diameter pots containing 50% peat, 50% John Innes soil no 3. After growth to the 3 leaf stage, plants are sprayed, as described above, in order to test for herbicide tolerance relative to like-treated non-transgenic tobacco plants.
Control tobacco plants and transgenic T1 plants expressing either the Pseudomonas or the wheat HPPD gene are sprayed at 37, 111, 333 and 1000 g/ha rates of HST inhibitors and, for example, compound 2.3.
Plants are assessed and scored for % damage at 16 DAT.

weeds [2] = assay: Glasshouse weed control, HST inhibitors alone and with A22, post-emergence; conditions: 14 DAT, single replicate
Description: (§1) In a further test, the results of which are depicted in tables 18 and 19, weed seeds are planted out in trays containing 50% peat/50% John Innes no. 3 soil and grown in the glass house at 24-27 C day; 18-21 C night and approximately a 15 h photoperiod. Humidity is ˜65% and light levels at bench level are up to 2 mmol/m^2. Again all spray chemicals are dissolved in 0.2% X77 surfactant and sprayed from a boom on a track sprayer moving at 2 mph with the nozzle set about 2 inches above the plant tops. The spray volume is […]. Sprays are carried out both pre-emergence and post-emergence over small plants at about 7-12 d post-emergence. Plants are assessed at 14 DAT with herbicidal damage scored on a scale from 0 to 100%. The HPPD inhibiting herbicide is compound A22 (4-hydroxy-3-[[2-(2-methoxyethoxy)methyl]-6-(trifluoromethyl)-3-pyridinylicarbonyl]-bicyclo[3.2.1]oct-3-en-2-one) which is sprayed at 2 g/ha both alone and in mixture with various HST herbicides. Results and spray rates are depicted in Tables 18 and 19. Again the Colby formula has been used to calculate synergy scores observed following treatment with the mixture based on the results obtained with the single components alone. Positive synergy is observed between the HPPD herbicide and a wide variety of HST inhibitor herbicides applied both pre and postemergence across a variety of weeds.

weeds [3] = assay: Glasshouse weed control, HST inhibitors alone and with A22, pre-emergence; conditions: 14 DAT
Description: as §1

Structure (SMILES)	% control score, Obs (weeds [2]; BRAPL, 15.625 g/ha alone)	% control score, Obs (weeds [2]; BRAPL, 62.5 g/ha alone)	% control score, Obs (weeds [2]; BRAPL, 250 g/ha alone)	% control score, Obs (weeds [2]; DIGSA, 15.625 g/ha alone)	% control score, Obs (weeds [2]; DIGSA, 62.5 g/ha alone)	% control score, Obs (weeds [2]; DIGSA, 250 g/ha alone)	% control score, Obs (weeds [2]; ECHCG, 15.625 g/ha alone)	% control score, Obs (weeds [2]; ECHCG, 62.5 g/ha alone)	% control score, Obs (weeds [2]; ECHCG, 250 g/ha alone)	% control score, Obs (weeds [2]; PANMI, 15.625 g/ha alone)	% control score, Obs (weeds [2]; PANMI, 62.5 g/ha alone)	% control score, Obs (weeds [2]; PANMI, 250 g/ha alone)	% control score, Obs (weeds [2]; SETFA, 15.625 g/ha alone)	% control score, Obs (weeds [2]; SETFA, 62.5 g/ha alone)	% control score, Obs (weeds [2]; SETFA, 250 g/ha alone)	% control score, Obs (weeds [2]; SIDSP, 15.625 g/ha alone)	% control score, Obs (weeds [2]; SIDSP, 62.5 g/ha alone)	% control score, Obs (weeds [2]; SIDSP, 250 g/ha alone)	BRAPL Obs, % control score (weeds [3]; HST inhibitor rate 15.625 g/ha)	BRAPL Obs, % control score (weeds [3]; HST inhibitor rate 62.5 g/ha)	other results
CNc1cnn(-c2cccc(C(F)(F)F)c2)c(=O)c1Cl [Norflurazon, reference compound]																					herbicide % damage [1]: 20% and 15% and 10%
CC(C)(C)C(=O)Oc1c(-c2c(F)ccc(Cl)c2Cl)c(=O)n(CC(F)F)c2nccnc12 [Compound 2.25]	15%	30%	60%	0%	2%	10%	1%	2%	30%	2%	10%	55%	1%	5%	40%	10%	30%	40%	0%	2%	BRAPL Obs, % control score (weeds [3]; HST inhibitor rate 250 g/ha): 20%; DIGSA Obs, % control score (weeds [3]; HST inhibitor rate 15.625 g/ha): 0%; DIGSA Obs, % control score (weeds [3]; HST inhibitor rate 62.5 g/ha): 0%; DIGSA Obs, % control score (weeds [3]; HST inhibitor rate 250 g/ha): 5%; ECHCG Obs, % control score (weeds [3]; HST inhibitor rate 15.625 g/ha): 0%; ECHCG Obs, % control score (weeds [3]; HST inhibitor rate 62.5 g/ha): 0%; ECHCG Obs, % control score (weeds [3]; HST inhibitor rate 250 g/ha): 30%; PANMI Obs, % control score (weeds [3]; HST inhibitor rate 15.625 g/ha): 0%; PANMI Obs, % control score (weeds [3]; HST inhibitor rate 62.5 g/ha): 0%; PANMI Obs, % control score (weeds [3]; HST inhibitor rate 250 g/ha): 10%; SETFA Obs, % control score (weeds [3]; HST inhibitor rate 15.625 g/ha): 0%; SETFA Obs, % control score (weeds [3]; HST inhibitor rate 62.5 g/ha): 1%; SETFA Obs, % control score (weeds [3]; HST inhibitor rate 250 g/ha): 15%; SIDSP Obs, % control score (weeds [3]; HST inhibitor rate 15.625 g/ha): 0%; SIDSP Obs, % control score (weeds [3]; HST inhibitor rate 62.5 g/ha): 1%; SIDSP Obs, % control score (weeds [3]; HST inhibitor rate 250 g/ha): 2%
CC(C)C(=O)Oc1c(-c2c(Cl)cccc2C(F)(F)F)c(=O)n(CC(F)F)c2nccnc12 [Compound 2.28]	5%	50%	75%	10%	50%	70%	2%	40%	70%	1%	35%	70%	2%	50%	80%	15%	40%	50%	0%	2%	BRAPL Obs, % control score (weeds [3]; HST inhibitor rate 250 g/ha): 50%; DIGSA Obs, % control score (weeds [3]; HST inhibitor rate 15.625 g/ha): 0%; DIGSA Obs, % control score (weeds [3]; HST inhibitor rate 62.5 g/ha): 0%; DIGSA Obs, % control score (weeds [3]; HST inhibitor rate 250 g/ha): 30%; ECHCG Obs, % control score (weeds [3]; HST inhibitor rate 15.625 g/ha): 0%; ECHCG Obs, % control score (weeds [3]; HST inhibitor rate 62.5 g/ha): 50%; ECHCG Obs, % control score (weeds [3]; HST inhibitor rate 250 g/ha): 80%; PANMI Obs, % control score (weeds [3]; HST inhibitor rate 15.625 g/ha): 0%; PANMI Obs, % control score (weeds [3]; HST inhibitor rate 62.5 g/ha): 0%; PANMI Obs, % control score (weeds [3]; HST inhibitor rate 250 g/ha): 60%; SETFA Obs, % control score (weeds [3]; HST inhibitor rate 15.625 g/ha): 0%; SETFA Obs, % control score (weeds [3]; HST inhibitor rate 62.5 g/ha): 25%; SETFA Obs, % control score (weeds [3]; HST inhibitor rate 250 g/ha): 60%; SIDSP Obs, % control score (weeds [3]; HST inhibitor rate 15.625 g/ha): 0%; SIDSP Obs, % control score (weeds [3]; HST inhibitor rate 62.5 g/ha): 0%; SIDSP Obs, % control score (weeds [3]; HST inhibitor rate 250 g/ha): 10%
